test system: GALAP (catchweed bedstraw); assay: Pre-emergence herbicidal activity, cool season; type: in vivo, Galium aparine; conditions: lowest tested rate with 80% or greater inhibition; rates 300, 100, 30, 10 g/ha; about 14 days
Outline: (§1)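 GR80 values derive from percent inhibition relative to untreated plants, read roughly 14 days after sowing and pre-emergence soil-surface treatment (compound in 50:50 acetone/water; rates typically 10, 30, 100, 300 g/ha). Warm-season weeds grew at 30/21° C day/night, cool-season ones at 18/13° C; an asterisk marks activity without reaching 80% at the highest rate.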

Structure (SMILES) | Pre-emergence activity GR80, GALAP
C=C(Br)CC(F)(F)S(=O)(=O)c1ncn(C(=O)N(CC)CC)n1 [Example 19] | 300 g/ha
CCSC(F)(F)S(=O)(=O)c1ncn(C(=O)N(CC)CC)n1 [Example 8, 1-(N,N-diethylcarbamoyl)-3-[difluoro(ethylthio)methylsulfonyl]-1,2,4-triazole] | [empty]

test system: LAMPU (purple deadnettle); assay: Pre-emergence herbicidal activity, cool season; type: in vivo, Lamium purpureum; conditions: lowest tested rate with 80% or greater inhibition; rates 300, 100, 30, 10 g/ha; about 14 days
Outline: as §1

Structure (SMILES) | Pre-emergence activity GR80, LAMPU
C=C(Br)CC(F)(F)S(=O)(=O)c1ncn(C(=O)N(CC)CC)n1 [Example 19] | 30 g/ha
CCSC(F)(F)S(=O)(=O)c1ncn(C(=O)N(CC)CC)n1 [Example 8, 1-(N,N-diethylcarbamoyl)-3-[difluoro(ethylthio)methylsulfonyl]-1,2,4-triazole] | [empty]

test system: SORHA (johnsongrass (seedling)); assay: Pre-plant incorporated (PPI) herbicidal activity, warm season; type: in vivo, Sorghum halepense; conditions: Sorghum halepense; PPI application, 10 g/ha; read-out: Percent inhibition SORHA
Protocol: (§2) In another set of tests, the pre-plant incorporated (PPI) activity of compounds of this invention was evaluated on the same species as for the pre-emergence tests described above. In the PPI tests the following procedure, designed to simulate PPI application, was used.
(§3) A pre-prepared topsoil mixture (described above) was placed in a pot and compacted to a depth of 1.0 to 1.25 cm from the top of the pot. Seeds of each of several monocotyledonous and dicotyledonous annual plant species were placed on top of the soil. A sufficient quantity of soil to cover the seeds and level fill the pot was weighed into an open container. A known amount of the test compound was dissolved or suspended in an organic solvent and applied by spraying to this cover soil. The cover soil was thoroughly mixed to distribute the test compound throughout the cover soil, and was then applied as a cover layer over the seeds. Untreated soil was used as a cover layer for control pots. After treatment the plants were placed in a greenhouse where they received 0.64 cm of overhead irrigation. All subsequent watering consisted of a light overhead mist and/or subirrigation as needed for germination and growth. Tables 9 and 10 below relate to warm season plant species which were placed after pre-emergence treatment in a greenhouse with a 30/21° C. day/night temperature regime. Tables 11 and 12 below relates to cool season plant species placed after pre-emergence treatment in a greenhouse or growth chamber with an 18/13° C. day/night temperature regime. Only the compounds of Examples 1, 6, 8, 11, 13 and 15-20 were included in PPI tests.
(§4) Approximately 14 days after planting and treating, the plants were observed and herbicidal efficacy recorded as percent inhibition by comparison with untreated plants.

Structure (SMILES) | inhibition at 10 g/ha
C=C(Br)CC(F)(F)S(=O)(=O)c1ncn(C(=O)N(CC)CC)n1 [Example 19] | 60%

same assay, conditions: Sorghum halepense; PPI application, 30 g/ha; read-out: Percent inhibition SORHA

Structure (SMILES) | inhibition at 30 g/ha
C=C(Br)CC(F)(F)S(=O)(=O)c1ncn(C(=O)N(CC)CC)n1 [Example 19] | 80%
CCSC(F)(F)S(=O)(=O)c1ncn(C(=O)N(CC)CC)n1 [Example 8, 1-(N,N-diethylcarbamoyl)-3-[difluoro(ethylthio)methylsulfonyl]-1,2,4-triazole] | 100%

same assay, conditions: Sorghum halepense; PPI application, 100 g/ha; read-out: Percent inhibition SORHA

Structure (SMILES) | inhibition at 100 g/ha
C=C(Br)CC(F)(F)S(=O)(=O)c1ncn(C(=O)N(CC)CC)n1 [Example 19] | 100%
CCSC(F)(F)S(=O)(=O)c1ncn(C(=O)N(CC)CC)n1 [Example 8, 1-(N,N-diethylcarbamoyl)-3-[difluoro(ethylthio)methylsulfonyl]-1,2,4-triazole] | 90%

same assay, conditions: Sorghum halepense; PPI application, 300 g/ha; read-out: Percent inhibition SORHA

Structure (SMILES) | inhibition at 300 g/ha
C=C(Br)CC(F)(F)S(=O)(=O)c1ncn(C(=O)N(CC)CC)n1 [Example 19] | 100%
CCSC(F)(F)S(=O)(=O)c1ncn(C(=O)N(CC)CC)n1 [Example 8, 1-(N,N-diethylcarbamoyl)-3-[difluoro(ethylthio)methylsulfonyl]-1,2,4-triazole] | 100%

same assay, conditions: Sorghum halepense; PPI application, 900 g/ha; read-out: Percent inhibition SORHA

Structure (SMILES) | inhibition at 900 g/ha
C=C(Br)CC(F)(F)S(=O)(=O)c1ncn(C(=O)N(CC)CC)n1 [Example 19] | 100%
CCSC(F)(F)S(=O)(=O)c1ncn(C(=O)N(CC)CC)n1 [Example 8, 1-(N,N-diethylcarbamoyl)-3-[difluoro(ethylthio)methylsulfonyl]-1,2,4-triazole] | 100%

same assay, conditions: pre-plant incorporated; lowest tested rate with 80% or greater inhibition; about 14 days

Structure (SMILES) | PPI activity GR80, SORHA
C=C(Br)CC(F)(F)S(=O)(=O)c1ncn(C(=O)N(CC)CC)n1 [Example 19] | 100 g/ha
CCSC(F)(F)S(=O)(=O)c1ncn(C(=O)N(CC)CC)n1 [Example 8, 1-(N,N-diethylcarbamoyl)-3-[difluoro(ethylthio)methylsulfonyl]-1,2,4-triazole] | 30 g/ha

test system: BRAPP (broadleaf signalgrass); assay: as above; type: in vivo, Brachiaria platyphylla; conditions: Urochloa platyphylla; PPI application, 10 g/ha; read-out: Percent inhibition BRAPP
Protocol: as §2, §3, §4

Structure (SMILES) | inhibition at 10 g/ha
C=C(Br)CC(F)(F)S(=O)(=O)c1ncn(C(=O)N(CC)CC)n1 [Example 19] | 0%

same assay, conditions: Urochloa platyphylla; PPI application, 30 g/ha; read-out: Percent inhibition BRAPP

Structure (SMILES) | inhibition at 30 g/ha
C=C(Br)CC(F)(F)S(=O)(=O)c1ncn(C(=O)N(CC)CC)n1 [Example 19] | 0%
CCSC(F)(F)S(=O)(=O)c1ncn(C(=O)N(CC)CC)n1 [Example 8, 1-(N,N-diethylcarbamoyl)-3-[difluoro(ethylthio)methylsulfonyl]-1,2,4-triazole] | 40%

same assay, conditions: Urochloa platyphylla; PPI application, 100 g/ha; read-out: Percent inhibition BRAPP

Structure (SMILES) | inhibition at 100 g/ha
C=C(Br)CC(F)(F)S(=O)(=O)c1ncn(C(=O)N(CC)CC)n1 [Example 19] | 30%
CCSC(F)(F)S(=O)(=O)c1ncn(C(=O)N(CC)CC)n1 [Example 8, 1-(N,N-diethylcarbamoyl)-3-[difluoro(ethylthio)methylsulfonyl]-1,2,4-triazole] | 70%

same assay, conditions: Urochloa platyphylla; PPI application, 300 g/ha; read-out: Percent inhibition BRAPP

Structure (SMILES) | inhibition at 300 g/ha
C=C(Br)CC(F)(F)S(=O)(=O)c1ncn(C(=O)N(CC)CC)n1 [Example 19] | 100%
CCSC(F)(F)S(=O)(=O)c1ncn(C(=O)N(CC)CC)n1 [Example 8, 1-(N,N-diethylcarbamoyl)-3-[difluoro(ethylthio)methylsulfonyl]-1,2,4-triazole] | 100%

same assay, conditions: Urochloa platyphylla; PPI application, 900 g/ha; read-out: Percent inhibition BRAPP

Structure (SMILES) | inhibition at 900 g/ha
C=C(Br)CC(F)(F)S(=O)(=O)c1ncn(C(=O)N(CC)CC)n1 [Example 19] | 100%
CCSC(F)(F)S(=O)(=O)c1ncn(C(=O)N(CC)CC)n1 [Example 8, 1-(N,N-diethylcarbamoyl)-3-[difluoro(ethylthio)methylsulfonyl]-1,2,4-triazole] | 100%

same assay, conditions: pre-plant incorporated; lowest tested rate with 80% or greater inhibition; about 14 days

Structure (SMILES) | PPI activity GR80, BRAPP
C=C(Br)CC(F)(F)S(=O)(=O)c1ncn(C(=O)N(CC)CC)n1 [Example 19] | 300 g/ha
CCSC(F)(F)S(=O)(=O)c1ncn(C(=O)N(CC)CC)n1 [Example 8, 1-(N,N-diethylcarbamoyl)-3-[difluoro(ethylthio)methylsulfonyl]-1,2,4-triazole] | 30 g/ha

test system: LAMPU (purple deadnettle); assay: Pre-plant incorporated (PPI) herbicidal activity, cool season; type: in vivo, Lamium purpureum; conditions: Lamium purpureum; weed, PPI application, 10 g/ha; read-out: Percent inhibition LAMPU
Protocol: as §2, §3, §4

Structure (SMILES) | inhibition at 10 g/ha
C=C(Br)CC(F)(F)S(=O)(=O)c1ncn(C(=O)N(CC)CC)n1 [Example 19] | 0%

same assay, conditions: Lamium purpureum; weed, PPI application, 30 g/ha; read-out: Percent inhibition LAMPU

Structure (SMILES) | inhibition at 30 g/ha
C=C(Br)CC(F)(F)S(=O)(=O)c1ncn(C(=O)N(CC)CC)n1 [Example 19] | 0%
CCSC(F)(F)S(=O)(=O)c1ncn(C(=O)N(CC)CC)n1 [Example 8, 1-(N,N-diethylcarbamoyl)-3-[difluoro(ethylthio)methylsulfonyl]-1,2,4-triazole] | 80%

same assay, conditions: Lamium purpureum; weed, PPI application, 100 g/ha; read-out: Percent inhibition LAMPU

Structure (SMILES) | inhibition at 100 g/ha
CCSC(F)(F)S(=O)(=O)c1ncn(C(=O)N(CC)CC)n1 [Example 8, 1-(N,N-diethylcarbamoyl)-3-[difluoro(ethylthio)methylsulfonyl]-1,2,4-triazole] | 100%

same assay, conditions: Lamium purpureum; weed, PPI application, 300 g/ha; read-out: Percent inhibition LAMPU

Structure (SMILES) | inhibition at 300 g/ha
C=C(Br)CC(F)(F)S(=O)(=O)c1ncn(C(=O)N(CC)CC)n1 [Example 19] | 0%
CCSC(F)(F)S(=O)(=O)c1ncn(C(=O)N(CC)CC)n1 [Example 8, 1-(N,N-diethylcarbamoyl)-3-[difluoro(ethylthio)methylsulfonyl]-1,2,4-triazole] | 90%

same assay, conditions: Lamium purpureum; weed, PPI application, 900 g/ha; read-out: Percent inhibition LAMPU

Structure (SMILES) | inhibition at 900 g/ha
C=C(Br)CC(F)(F)S(=O)(=O)c1ncn(C(=O)N(CC)CC)n1 [Example 19] | 99%
CCSC(F)(F)S(=O)(=O)c1ncn(C(=O)N(CC)CC)n1 [Example 8, 1-(N,N-diethylcarbamoyl)-3-[difluoro(ethylthio)methylsulfonyl]-1,2,4-triazole] | 100%

same assay, conditions: pre-plant incorporated; lowest tested rate with 80% or greater inhibition; about 14 days

Structure (SMILES) | PPI activity GR80, LAMPU
C=C(Br)CC(F)(F)S(=O)(=O)c1ncn(C(=O)N(CC)CC)n1 [Example 19] | 100 g/ha
CCSC(F)(F)S(=O)(=O)c1ncn(C(=O)N(CC)CC)n1 [Example 8, 1-(N,N-diethylcarbamoyl)-3-[difluoro(ethylthio)methylsulfonyl]-1,2,4-triazole] | 100 g/ha

test system: AGSST (creeping bentgrass); assay: as above; type: in vivo, Agrostis stolonifera; conditions: Agrostis stolonifera; weed, PPI application, 10 g/ha; read-out: Percent inhibition AGSST
Protocol: as §2, §3, §4

Structure (SMILES) | inhibition at 10 g/ha
C=C(Br)CC(F)(F)S(=O)(=O)c1ncn(C(=O)N(CC)CC)n1 [Example 19] | 60%

same assay, conditions: Agrostis stolonifera; weed, PPI application, 30 g/ha; read-out: Percent inhibition AGSST

Structure (SMILES) | inhibition at 30 g/ha
C=C(Br)CC(F)(F)S(=O)(=O)c1ncn(C(=O)N(CC)CC)n1 [Example 19] | 90%
CCSC(F)(F)S(=O)(=O)c1ncn(C(=O)N(CC)CC)n1 [Example 8, 1-(N,N-diethylcarbamoyl)-3-[difluoro(ethylthio)methylsulfonyl]-1,2,4-triazole] | 100%

same assay, conditions: Agrostis stolonifera; weed, PPI application, 100 g/ha; read-out: Percent inhibition AGSST

Structure (SMILES) | inhibition at 100 g/ha
C=C(Br)CC(F)(F)S(=O)(=O)c1ncn(C(=O)N(CC)CC)n1 [Example 19] | 100%
CCSC(F)(F)S(=O)(=O)c1ncn(C(=O)N(CC)CC)n1 [Example 8, 1-(N,N-diethylcarbamoyl)-3-[difluoro(ethylthio)methylsulfonyl]-1,2,4-triazole] | 100%

same assay, conditions: Agrostis stolonifera; weed, PPI application, 300 g/ha; read-out: Percent inhibition AGSST

Structure (SMILES) | inhibition at 300 g/ha
C=C(Br)CC(F)(F)S(=O)(=O)c1ncn(C(=O)N(CC)CC)n1 [Example 19] | 90%
CCSC(F)(F)S(=O)(=O)c1ncn(C(=O)N(CC)CC)n1 [Example 8, 1-(N,N-diethylcarbamoyl)-3-[difluoro(ethylthio)methylsulfonyl]-1,2,4-triazole] | 100%

same assay, conditions: Agrostis stolonifera; weed, PPI application, 900 g/ha; read-out: Percent inhibition AGSST

Structure (SMILES) | inhibition at 900 g/ha
C=C(Br)CC(F)(F)S(=O)(=O)c1ncn(C(=O)N(CC)CC)n1 [Example 19] | 100%
CCSC(F)(F)S(=O)(=O)c1ncn(C(=O)N(CC)CC)n1 [Example 8, 1-(N,N-diethylcarbamoyl)-3-[difluoro(ethylthio)methylsulfonyl]-1,2,4-triazole] | 100%

same assay, conditions: pre-plant incorporated; lowest tested rate with 80% or greater inhibition; about 14 days

Structure (SMILES) | PPI activity GR80, AGSST
C=C(Br)CC(F)(F)S(=O)(=O)c1ncn(C(=O)N(CC)CC)n1 [Example 19] | 10 g/ha
CCSC(F)(F)S(=O)(=O)c1ncn(C(=O)N(CC)CC)n1 [Example 8, 1-(N,N-diethylcarbamoyl)-3-[difluoro(ethylthio)methylsulfonyl]-1,2,4-triazole] | 30 g/ha

test system: SETVI (green foxtail); assay: Post-emergence herbicidal activity, cool season; type: in vivo, Setaria viridis; conditions: abraded plants sprayed at 300, 100, 30 and 10 g/ha; about 14 days after treatment
Outline: (§5)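 Post-emergence foliar spray; plants abraded (garnet 200w, ~850 kPa sandblast) before application. Rates 300/100/30/10 g/ha in 50:50 acetone:water, 3,100 l/ha, 511 kPa. Greenhouse 18/13° C. day/night; % inhibition vs abraded unsprayed controls at ~14 days after treatment, GR80 derived.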

Structure (SMILES) | Post-emergence activity GR80, SETVI
C=C(Br)CC(F)(F)S(=O)(=O)c1ncn(C(=O)N(CC)CC)n1 [Example 19] | [empty]
CCSC(F)(F)S(=O)(=O)c1ncn(C(=O)N(CC)CC)n1 [Example 8, 1-(N,N-diethylcarbamoyl)-3-[difluoro(ethylthio)methylsulfonyl]-1,2,4-triazole] | [empty]

test system: AGRRE (quackgrass (seedling)); assay: Post-emergence herbicidal activity, cool season; type: in vivo, Elymus repens; conditions: abraded plants sprayed at 300, 100, 30 and 10 g/ha; about 14 days after treatment
Outline: as §5

Structure (SMILES) | Post-emergence activity GR80, AGRRE
C=C(Br)CC(F)(F)S(=O)(=O)c1ncn(C(=O)N(CC)CC)n1 [Example 19] | [empty]
CCSC(F)(F)S(=O)(=O)c1ncn(C(=O)N(CC)CC)n1 [Example 8, 1-(N,N-diethylcarbamoyl)-3-[difluoro(ethylthio)methylsulfonyl]-1,2,4-triazole] | [empty]
